This is an account of results in patent US8569378B2, “p27 protein inducer” (Chugai Seiyaku Kabushiki Kaisha, priority 2007, dated 2013).

The first assay has as its system p27 protein. As to the kind of experiment: Quantification of p27 protein by ELISA (p27 protein-inducing activity, EC50). The settings on record: NCI-H460 cells, 48 hours, p27 sandwich ELISA; Table 1-1. In kind it is cell-based, human. As for the experimental part: The p27 protein-inducing activities of the compounds or salts listed in Tables 1-1, 1-2 and 2 below were measured as follows.
Preparation of Cell Lysate:
NCI-H460 human non-small cell lung cancer cells (ATCC HTB-177) were plated in 6-well plates at 2×10^5 cells/well and incubated overnight. Then, the test substance was added to the medium to a final concentration of 10000 nmol/L, 3000 nmol/L, 100 nmol/L, 30 nmol/L, 10 nmol/L, 3 nmol/L, 1 nmol/L, 0.3 nmol/L, 0.1 nmol/L, 0.03 nmol/L or 0.01 nmol/L and the cells were incubated at 37° C. in 5% CO2 for 48 hours. 150 μL of Cell Lysis Buffer (catalog no. 9803, Cell Signaling) which had been diluted to 1-fold concentration (1 mM PMSF was added immediately before use) was added, and the mixture was allowed to stand on ice for 10 minutes. The Cell Lysis Buffer in which cells were lysed was collected together with cells with a scraper and transferred to a new tube. It was centrifuged at 15000 rpm for 10 minutes at 4° C. and the supernatant was then transferred to a new tube.
Quantification by Sandwich ELISA:
Anti-p27 monoclonal antibody (catalog no. 71-9600, Zymed) was diluted to 5 μg/mL in 50 mM carbonate coating buffer (0.4 g/L NaCO3, 0.73 g/L NaHCO3 and 0.04 g/L NaN3 in distilled water), and it was then added at 50 μL/well and allowed to stand overnight at 4° C. to bind the antibody. After washing three times with PBS, 200 μL of blocking solution (0.2% I-Block in PBS) was added to each well. After 1 hour of incubation at room temperature, washing with PBS-T (0.05% Tween 20 in PBS) was performed three times. The sample and recombinant p27 protein standard were serially diluted in Cell Lysis Buffer (catalog no. 9803, Cell Signaling) which had been diluted to 1-fold concentration (1 mM PMSF was added immediately before use), and it was then added at 100 μL/well. After 1 hour of incubation at room temperature, washing with 200 μL of PBS-T was performed three times. HRP-labeled anti-p27 antibody (product no. 610243, BD Transdution Laboratories) was diluted 1:2500 (i.e. to 0.1 μg/mL) in 0.2% I-Block/0.05% PBS-T, and it was then added at 100 μL/well. After 1 hour of incubation at room temperature, washing with 200 μL of PBS-T was performed three times. Chromogenic substrate solution (TMB One Solution, catalog no. G7431, Promega) was added at 100 μL/well and allowed to develop a color reaction at room temperature. After stopping the reaction with 50 μL of 1N H2SO4, the absorbance at 450 nm was measured.
Calculation of EC50 Values:
A standard response curve was generated by plotting the amount of p27 protein against the concentration of the test substance. The basal level of response was defined as 0%, while the plateau level where the induction of p27 protein had been maximized was defined as 100%. Finally, the test substance concentration at which 50% induction was achieved was calculated, and it was defined as EC50.
As for `CNS(=O)(=O)Nc1cccc(Cc2c(CF)c3cc(Cl)c(OC(=O)N(C)C)cc3oc2=O)c1` [Compound 1j-1-3-2F, Dimethylcarbamic acid 6-chloro-4-fluoromethyl-3-{3-(methylaminosulfonyl)aminobenzyl}-2-oxo-2H-1-benzopyran-7-yl ester], it took 31 nM to reach a half-maximal effect (EC50).

On to `Cc1c(Cc2cccc(NS(=O)(=O)N(C)C)c2)c(=O)oc2cc(OC(=O)N(C)C)c(Cl)cc12` [Compound 1j-1-3-3, Dimethylcarbamic acid 6-chloro-4-methyl-3-{3-(dimethylaminosulfonyl)aminobenzyl}-2-oxo-2H-1-benzopyran-7-yl ester], for which the EC50 (as a rule, the concentration needed to bring the measured effect to its halfway point) turned out to be 74 nM.

In turn, `Cc1c(Cc2cccc(NS(N)(=O)=O)c2F)c(=O)oc2cc(OC(=O)N(C)C)ccc12` [Compound 1j-1-4-1, Dimethylcarbamic acid 3-(3-aminosulfonylamino-2-fluoro-benzyl)-4-methyl-2-oxo-2H-1-benzopyran-7-yl ester] had an EC50 of 180 nM.

`CNS(=O)(=O)Nc1cccc(Cc2c(C)c3ccc(OC(=O)N(C)C)cc3oc2=O)c1F` [Compound 1j-1-4-2, Dimethylcarbamic acid 3-(3-methylaminosulfonylamino-2-fluoro-benzyl)-4-methyl-2-oxo-2H-1-benzopyran-7-yl ester] showed an EC50 of 78 nM.

`CNS(=O)(=O)Nc1cccc(Cc2c(CF)c3ccc(OC(=O)N(C)C)cc3oc2=O)c1F` [Compound 1j-1-4-2F, Dimethylcarbamic acid 3-(3-methylaminosulfonylamino-2-fluoro-benzyl)-4-fluoromethyl-2-oxo-2H-1-benzopyran-7-yl ester] gave an EC50 of 60 nM.

Molecule `CNS(=O)(=O)Nc1cccc(Cc2c(C)c3cc(F)c(OC(=O)N(C)C)cc3oc2=O)c1F` [Compound 1j-1-5-2, Dimethylcarbamic acid 6-fluoro-4-methyl-3-{2-fluoro-3-(methylaminosulfonyl)aminobenzyl}-2-oxo-2H-1-benzopyran-7-yl ester] gave an EC50 of 210 nM.

Consider `Cc1c(Cc2cccc(NS(N)(=O)=O)c2)c(=O)oc2cc(OC(=O)N(C)C)c(I)cc12` [Compound 1j-1-7-1, Dimethylcarbamic acid 3-{3-(aminosulfonyl)aminobenzyl}-6-iodo-4-methyl-2-oxo-2H-1-benzopyran-7-yl ester], for which the response was half-maximal at 160 nM (EC50).

Regarding `CNS(=O)(=O)Nc1cccc(Cc2c(C)c3cc(I)c(OC(=O)N(C)C)cc3oc2=O)c1` [Compound 1j-1-7-2, Dimethylcarbamic acid 6-iodo-4-methyl-3-{3-(methylaminosulfonyl)aminobenzyl}-2-oxo-2H-1-benzopyran-7-yl ester], the EC50 was determined as 27 nM.

The molecule `CNS(=O)(=O)Nc1cccc(Cc2c(C)c3cc(C)c(OC(=O)N(C)C)cc3oc2=O)c1` [Compound 1j-1-8-2, Dimethylcarbamic acid 6-methyl-4-methyl-3-{3-(methylaminosulfonyl)aminobenzyl}-2-oxo-2H-1-benzopyran-7-yl ester] came in with an EC50 of 240 nM.

Consider `CNS(=O)(=O)Nc1cccc(Cc2c(C)c3cc(C#N)c(OC(=O)N(C)C)cc3oc2=O)c1` [Compound 1j-1-9-2, Dimethylcarbamic acid 6-cyano-4-methyl-3-{3-(methylaminosulfonyl)aminobenzyl}-2-oxo-2H-1-benzopyran-7-yl ester], for which the response was half-maximal at 4800 nM (EC50).

As for `Cc1c(Cc2cccc(NS(=O)(=O)NCCC#N)c2)c(=O)oc2cc(OC(=O)N(C)C)c(Cl)cc12` [Compound 1j-1-21-2, Dimethylcarbamic acid 3-(3-(N-(2-cyanoethyl)sulfamoyl)aminobenzyl)-6-chloro-4-methyl-2-oxo-2H-1-benzopyran-7-yl ester], it took 150 nM to reach a half-maximal effect (EC50).

On to `COCCNS(=O)(=O)Nc1cccc(Cc2c(C)c3cc(Cl)c(OC(=O)N(C)C)cc3oc2=O)c1` [Compound 1j-1-23-2, Dimethylcarbamic acid 3-(3-(N-(2-methoxyethyl)sulfamoyl)aminobenzyl)-6-chloro-4-methyl-2-oxo-2H-1-benzopyran-7-yl ester], for which the EC50 turned out to be 220 nM.

The assay is the same for the next values; noted with them: NCI-H460 cells, 48 hours, p27 sandwich ELISA; Table 1-2.
`Cc1c(Cc2ccccc2)c(=O)oc2cc(OC(=O)N(C)C)c(Cl)cc12` [Comp. 2, dimethylcarbamic acid 2-oxo-2H-3-benzyl-4-methyl-6-chloro-1-benzopyran-7-yl ester, reference compound]: the EC50 stood at 5400 nM.

As for `CNS(=O)(=O)Nc1cc(Cc2c(C)c3cc(Cl)c(OC(=O)N(C)C)cc3oc2=O)ccn1` [Compound 1j-1-12-2, Dimethylcarbamic acid 4-methyl-3-{2-(methylaminosulfonyl)aminopyridin-4-ylmethyl}-6-chloro-2-oxo-2H-1-benzopyran-7-yl ester], it took 1100 nM to reach a half-maximal effect (EC50).

As to `CNS(=O)(=O)Nc1nccc(Cc2c(C)c3cc(F)c(Oc4ncccn4)cc3oc2=O)c1F` [Compound 1j-2-17-2, 3-{2-(methylaminosulfonyl)amino-3-fluoropyridin-4-ylmethyl}-4-methyl-6-fluoro-7-(pyrimidin-2-yloxy)-2-oxo-2H-1-benzopyran], the EC50 came to 220 nM.

Turning to `CNS(=O)(=O)Nc1nccc(Cc2c(C)c3cc(Cl)c(Oc4ncccn4)cc3oc2=O)c1F` [Compound 1j-2-18-2, 3-{2-(Methylaminosulfonyl)amino-3-fluoropyridin-4-ylmethyl}-4-methyl-6-chloro-7-(pyrimidin-2-yloxy)-2-oxo-2H-1-benzopyran], a half-maximal response (EC50) required 43 nM.

In the case of `CNS(=O)(=O)Nc1nccc(Cc2c(C)c3cc(C)c(Oc4ncccn4)cc3oc2=O)c1F` [Compound 1j-2-19-2, 3-{2-(Methylaminosulfonyl)amino-3-fluoropyridin-4-ylmethyl}-4-methyl-6-methyl-7-(pyrimidin-2-yloxy)-2-oxo-2H-1-benzopyran], the EC50 amounted to 160 nM.

`CCc1c(Cc2ccnc(NS(=O)(=O)NC)c2F)c(=O)oc2cc(Oc3ncccn3)c(C)cc12` [Compound 1j-2-19-2Me, 3-{2-(Methylaminosulfonyl)amino-3-fluoropyridin-4-ylmethyl}-4-ethyl-6-methyl-7-(pyrimidin-2-yloxy)-2-oxo-2H-1-benzopyran] had an EC50 of 48 nM.

On to `CNS(=O)(=O)Nc1cc(Cc2c(C)c3cc(Cl)c(Oc4nccs4)cc3oc2=O)ccn1` [Compound 1j-3-12-2, 3-{2-(Methylaminosulfonyl)aminopyridin-4-ylmethyl}-4-methyl-6-chloro-7-(thiazol-2-yloxy)-2-oxo-2H-1-benzopyran], for which the EC50 amounted to 458 nM.

The assay is the same for the next values; noted with them: NCI-H460 cells, 48 hours, p27 sandwich ELISA; Table 2.
Consider `CNS(=O)(=O)Nc1cccc(Cc2c(C)c3ccc(OC(=O)N(C)C)cc3oc2=O)n1` [Compound 1j-1-13-2, Dimethylcarbamic acid 4-methyl-3-{6-(methylaminosulfonyl)aminopyridin-2-ylmethyl}-2-oxo-2H-1-benzopyran-7-yl ester], for which the EC50 stood at 2500 nM.

Turning to `CNS(=O)(=O)Nc1cc(Cc2c(C)c3cc(Cl)c(Oc4ncccn4)cc3oc2=O)ccn1` [Compound 1j-2-12-2, 3-{2-(Methylaminosulfonyl)aminopyridin-4-ylmethyl}-4-methyl-7-(pyrimidin-2-yloxy)-6-chloro-2-oxo-2H-1-benzopyran], the EC50 amounted to 1450 nM.

For `CNS(=O)(=O)Nc1nccc(Cc2c(C)c3ccc(Oc4ncccn4)cc3oc2=O)c1F` [Compound 1j-2-16-2, 3-{2-(Methylaminosulfonyl)amino-3-fluoropyridin-4-ylmethyl}-4-methyl-7-(pyrimidin-2-yloxy)-2-oxo-2H-1-benzopyran], a half-maximal effect (EC50) was put at 504 nM.

The molecule `CNS(=O)(=O)Nc1cccc(Cc2c(C)c3ccc(Oc4nccs4)cc3oc2=O)c1` [Compound 1j-3-1-2, 3-{3-(Methylaminosulfonyl)aminobenzyl}-4-methyl-7-(thiazol-2-yloxy)-2-oxo-2H-1-benzopyran] showed an EC50 of 7100 nM.

`CNS(=O)(=O)Nc1cccc(Cc2c(C)c3cc(C)c(Oc4nccs4)cc3oc2=O)c1` [Compound 1j-3-8-2, 3-{3-(Methylaminosulfonyl)aminobenzyl}-4-methyl-7-(thiazol-2-yloxy)-6-methyl-2-oxo-2H-1-benzopyran] came in with an EC50 of 540 nM.
